Laboratory results from patent US9340577B2, “HLA binding motifs and peptides and their uses” (priority 1992, dated 2016).
No end group written: not given here.

Assays:
HLA-A1 (A*0101) = HLA-A1 (A*0101) (Homo sapiens, UniProt P04439, A114D/A174V/A182V/D101N/D185E/E176A/E190D/L180R/Q94H/R68K/S129P/T187R/V100A/V91M/W191G); test: biochemical; type: binding
A*2601 = A*2601 (Homo sapiens, UniProt P04439, A114D/A173T/A270S/D101N/D185E/E277Q/E87N/F33Y/G231S/I121R/I218V/K168Q/L180W/L300P/L318F/P208A/P217A/Q86R/Q94H/R138Q/S129P/T187R/T323A/T345S/V100A/V358M); test: biochemical; type: binding
A*2902 = A*2902 (Homo sapiens, UniProt P04439, A270S/D101N/D185E/E176V/E277Q/E87Q/F33T/G231S/H175R/I121M/I218V/I322F/K168Q/L300P/L318F/M331R/P208A/P217A/Q86L/T323A/T345S/V100A/V358M); test: biochemical; type: binding
A*3002 = A*3002 (Homo sapiens, UniProt P04439, D101N/D140H/D185E/E176R/F33S/G80R/H175R/K168Q/Q94H/R138E/R41S/V100E); test: biochemical; type: binding
HLA-A*0201 (HLA-A2.1) = HLA-A*0201 (HLA-A2.1) (Homo sapiens, UniProt P04439, D140Y/D185E/D98H/E176V/E277Q/G131W/G231S/I119V/I121R/I166T/I218V/L300P/L318F/N151K/N90K/P208A/P217A/Q86G/Q94H/R138H/R169H/T345S); test: biochemical; type: binding
HLA-A24 = type: binding, human
A2.1 HLA molecules = A2.1 HLA molecules (Homo sapiens, UniProt P04439, D140Y/D185E/D98H/E176V/E277Q/G131W/G231S/I119V/I121R/I166T/I218V/L300P/L318F/N151K/N90K/P208A/P217A/Q86G/Q94H/R138H/R169H/T345S); type: binding; set-up: A*0201 / A2.1 Binding / A2 Bind. / A2 / A2.1 (binding capacity): scale not given here

A*3002, sequence (P04439 whole entry, looked up, the tested form may be a part, stated change not applied): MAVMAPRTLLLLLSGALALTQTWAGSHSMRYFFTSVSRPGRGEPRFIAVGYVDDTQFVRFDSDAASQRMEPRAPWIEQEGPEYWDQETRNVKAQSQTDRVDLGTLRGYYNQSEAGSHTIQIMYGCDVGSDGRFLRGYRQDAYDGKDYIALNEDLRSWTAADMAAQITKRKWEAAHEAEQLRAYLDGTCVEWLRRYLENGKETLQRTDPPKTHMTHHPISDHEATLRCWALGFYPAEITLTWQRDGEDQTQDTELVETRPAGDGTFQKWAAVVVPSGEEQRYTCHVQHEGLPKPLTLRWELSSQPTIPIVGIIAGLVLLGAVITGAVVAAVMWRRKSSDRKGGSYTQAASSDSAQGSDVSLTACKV

## TIEKLTNTGLY [Peptide 1589.45]
HLA-A1 (A*0101)
  IC50: 78 nM
A*2601
  IC50: 12 nM
A*2902
  IC50: 15100 nM
A*3002
  IC50: 220 nM

## LTQRNPQLCY [Peptide 9012.0151]
HLA-A1 (A*0101)
  IC50: 6.9 nM
A*2601
  IC50: 21 nM
A*3002
  IC50: 7.1 nM

## LTDKIIDHY [Peptide 1593.09]
A*2601
  IC50: > 20000 nM
A*2902
  IC50: > 20000 nM
A*3002
  IC50: 6800 nM

## VFADLRIVY [Peptide 1549.09]
HLA-A1 (A*0101)
  IC50: > 20000 nM
A*2601
  IC50: 1800 nM
A*2902
  IC50: 2.9 nM
A*3002
  IC50: 21 nM

## KTGILTVTY [Peptide 86.0146]
HLA-A1 (A*0101)
  IC50: 855 nM
A*2601
  IC50: > 20000 nM
A*2902
  IC50: 3390 nM
A*3002
  IC50: 20 nM

## KSAIVTLTY [Peptide 1580.20]
HLA-A1 (A*0101)
  IC50: 9.2 nM
A*2601
  IC50: > 20000 nM
A*3002
  IC50: 5.7 nM

## ATTDLTIVY [Peptide 1549.51]
A*2601
  IC50: 163 nM
A*3002
  IC50: 109 nM

## HTASNPPAQY [Peptide 9012.0142]
A*2601
  IC50: 0.54 nM
A*2902
  IC50: 21 nM
A*3002
  IC50: 1.8 nM

## SMDNPEGRY [Peptide 9012.0122]
HLA-A1 (A*0101)
  IC50: 141 nM
A*2601
  IC50: 535 nM
A*2902
  IC50: 1440 nM
A*3002
  IC50: 11 nM

## RTDGNRQIIGY [Peptide 9012.0158]
HLA-A1 (A*0101)
  IC50: 140 nM
A*2601
  IC50: > 20000 nM
A*2902
  IC50: > 20000 nM
A*3002
  IC50: 95 nM

## ETDLDMLRHLY [Peptide 9012.0172]
HLA-A1 (A*0101)
  IC50: 9.6 nM
A*2601
  IC50: 4.4 nM
A*2902
  IC50: 1500 nM
A*3002
  IC50: 10 nM

## VQDKILDIY [Peptide 1580.32]
A*2601
  IC50: > 20000 nM
A*2902
  IC50: > 20000 nM
A*3002
  IC50: 3810 nM

## KVADLVGFLL
HLA-A*0201 (HLA-A2.1)
  binding to HLA-A2.1 (column 3; no allele head shown for these rows): 0.041
HLA-A24
  binding to HLA-A24 (column 6; no allele head shown for these rows): 0.0070
A2.1 HLA molecules
  A2 Bind.: 0.0560

## DSVQILVGY [Peptide 86.0147]
HLA-A1 (A*0101)
  IC50: 1930 nM
A*2601
  IC50: 2.8 nM

## GTDQATPGPAY [Peptide 9012.0160]
A*2601
  IC50: 3850 nM
A*3002
  IC50: 234 nM

## TTSPSYTY [Peptide 9012.0100]
A*2601
  IC50: 3440 nM
A*2902
  IC50: 213 nM
A*3002
  IC50: 323 nM

## KTDILTVTY [Peptide 1593.11]
A*2601
  IC50: > 20000 nM
A*2902
  IC50: > 20000 nM
A*3002
  IC50: 922 nM

## LQDKIIDHY [Peptide 1580.21]
A*2601
  IC50: > 20000 nM
A*2902
  IC50: > 20000 nM
A*3002
  IC50: 2770 nM

## LSSALEIPY [Peptide 1549.01]
HLA-A1 (A*0101)
  IC50: 25 nM
A*2601
  IC50: 4110 nM
A*3002
  IC50: 83 nM

## STDLRDHIDY [Peptide 1580.18]
HLA-A1 (A*0101)
  IC50: 25 nM
A*2601
  IC50: 9580 nM
A*2902
  IC50: > 20000 nM

## YSDVRKYRY [Peptide 1549.49]
HLA-A1 (A*0101)
  IC50: 18 nM
A*2601
  IC50: > 20000 nM
A*2902
  IC50: 209 nM
A*3002
  IC50: 275 nM

## LTDKILDHY [Peptide 1593.16]
HLA-A1 (A*0101)
  IC50: 3.1 nM
A*2601
  IC50: 804 nM
A*2902
  IC50: 4420 nM

## KMVELVHFLL
HLA-A*0201 (HLA-A2.1)
  binding to HLA-A2.1 (column 3; no allele head shown for these rows): 0.071
HLA-A24
  binding to HLA-A24 (column 6; no allele head shown for these rows): 0.0008
A2.1 HLA molecules
  A2: 0.2200
  A2 Bind.: 0.1100

## ATCVSHRGLY [Peptide 1580.22]
A*2601
  IC50: 492 nM
A*2902
  IC50: 4210 nM

## RTTQLFEDNY [Peptide 9012.0149]
HLA-A1 (A*0101)
  IC50: 2390 nM
A*2601
  IC50: > 20000 nM
A*2902
  IC50: 11200 nM
A*3002
  IC50: 7.4 nM

## CQDKILTHY [Peptide 86.0141]
HLA-A1 (A*0101)
  IC50: 914 nM
A*2601
  IC50: 8900 nM
A*3002
  IC50: 188 nM

## KMVELVHFL
HLA-A*0201 (HLA-A2.1)
  A2.1: 0.16
  binding to HLA-A2.1 (column 3; no allele head shown for these rows): 0.13
HLA-A24
  binding to HLA-A24 (column 6; no allele head shown for these rows): 0.0043
A2.1 HLA molecules
  A2 Bind.: 0.1600

## TTEPEAQNTTY [Peptide 9012.0166]
HLA-A1 (A*0101)
  IC50: 2.1 nM
A*2601
  IC50: 530 nM
A*2902
  IC50: 1330 nM

## NTGILTVTY [Peptide 86.0152]
A*2601
  IC50: 3150 nM
A*2902
  IC50: 1400 nM
A*3002
  IC50: 8720 nM

## VMIAMEGGHA
HLA-A*0201 (HLA-A2.1)
  binding to HLA-A2.1 (column 3; no allele head shown for these rows): 0.0023
HLA-A24
  binding to HLA-A24 (column 6; no allele head shown for these rows): 0
A2.1 HLA molecules
  A2 Bind.: 0.0360

## QTEPDTSNY [Peptide 1549.44]
A*2601
  IC50: 4980 nM
A*2902
  IC50: > 20000 nM

## ISDSYTYY [Peptide 9012.0102]
A*2601
  IC50: 8550 nM
A*2902
  IC50: 1990 nM
A*3002
  IC50: 9110 nM

## ISDYRHYCY [Peptide 1571.26]
HLA-A1 (A*0101)
  IC50: 9.4 nM
A*2601
  IC50: > 20000 nM
A*2902
  IC50: 9.9 nM

## ALREEEEGV
HLA-A*0201 (HLA-A2.1)
  binding to HLA-A2.1 (column 3; no allele head shown for these rows): 0.0056
HLA-A24
  binding to HLA-A24 (column 6; no allele head shown for these rows): 0
A2.1 HLA molecules
  A2 Bind.: 0.0210

## VTQGNLELTY [Peptide 9012.0147]
HLA-A1 (A*0101)
  IC50: 90 nM
A*2601
  IC50: 6720 nM
A*3002
  IC50: 23 nM

## VSEFRWYRY [Peptide 1549.02]
HLA-A1 (A*0101)
  IC50: 33 nM
A*2601
  IC50: > 20000 nM
A*2902
  IC50: 1520 nM

## CTDKILEHY [Peptide 1593.14]
HLA-A1 (A*0101)
  IC50: 110 nM
A*2601
  IC50: > 20000 nM
A*2902
  IC50: > 20000 nM

## TTSPLNTSY [Peptide 9012.0116]
A*2601
  IC50: 2.6 nM
A*3002
  IC50: 12 nM

## DSDQILVGY [Peptide 1593.12]
A*2601
  IC50: > 20000 nM
A*2902
  IC50: > 20000 nM
A*3002
  IC50: > 20000 nM

## ALAETSYVKV
HLA-A*0201 (HLA-A2.1)
  binding to HLA-A2.1 (column 3; no allele head shown for these rows): 0.017
HLA-A24
  binding to HLA-A24 (column 6; no allele head shown for these rows): 0
A2.1 HLA molecules
  A2: 0.0150
  A2 Bind.: 0.0150

## LTSALEIPY [Peptide 1549.40]
HLA-A1 (A*0101)
  IC50: 57 nM
A*2601
  IC50: 358 nM
A*3002
  IC50: 161 nM

## LVLGTLEEV
HLA-A*0201 (HLA-A2.1)
  binding to HLA-A2.1 (column 3; no allele head shown for these rows): 0.032
HLA-A24
  binding to HLA-A24 (column 6; no allele head shown for these rows): 0.0003
A2.1 HLA molecules
  A2: 0.0320
  A2 Bind.: 0.0320
  A2.1 relative binding (ratio of binding of test peptide relative to standard peptide): 0.032

## IVEGQVDYY [Peptide 1580.29]
HLA-A1 (A*0101)
  IC50: 188 nM
A*2601
  IC50: > 20000 nM
A*2902
  IC50: > 20000 nM

## CILESLFRA
HLA-A*0201 (HLA-A2.1)
  binding to HLA-A2.1 (column 3; no allele head shown for these rows): 0.073
HLA-A24
  binding to HLA-A24 (column 6; no allele head shown for these rows): 0
A2.1 HLA molecules
  A2 Bind.: 0.0460

## ETDEEITGYLY [Peptide 9012.0180]
HLA-A1 (A*0101)
  IC50: 6.4 nM
A*2601
  IC50: 27 nM
A*2902
  IC50: 277 nM

## MTETLNNTEY [Peptide 1593.15]
HLA-A1 (A*0101)
  IC50: 77 nM
A*2601
  IC50: 1620 nM
A*2902
  IC50: 471 nM

## YVIKVSARV
HLA-A*0201 (HLA-A2.1)
  binding to HLA-A2.1 (column 3; no allele head shown for these rows): 0.018
HLA-A24
  binding to HLA-A24 (column 6; no allele head shown for these rows): 0
A2.1 HLA molecules
  A2 Bind.: 0.0140

## VTDSRNTKY [Peptide 1580.30]
HLA-A1 (A*0101)
  IC50: 25 nM
A*2601
  IC50: > 20000 nM
A*2902
  IC50: > 20000 nM

## RALAETSYV
HLA-A*0201 (HLA-A2.1)
  binding to HLA-A2.1 (column 3; no allele head shown for these rows): 0.014
HLA-A24
  binding to HLA-A24 (column 6; no allele head shown for these rows): 0
A2.1 HLA molecules
  A2: 0.0100
  A2 Bind.: 0.0100
